This note sets out measurements from ChEMBL document CHEMBL1201862, “PubChem BioAssay data set” (2004).

Among the test systems are K562; PC-3; HOP-92; A498; Hs-578T; SK-MEL-5; MOLT-4; LOX IMVI; UACC-257; OVCAR-8; HCT-15; MCF7; CAKI-1; RPMI-8226; COLO 205; HL-60; SK-OV-3; TK-10; SNB-75; MDA-MB-231.
Test in all cases: inhibition of tumour cell growth, NCI panel, 48 h

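Five compound concentrations were applied to cells in 96-well plates for 48 hours; endpoints were derived by simple linear interpolation of the resulting dose-response curve. GI50 marks 50% less growth.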 Active and inactive are the calls of the source. Cut-off read from the data, not from the text of the source: active = GI50 up to about 1.1 µM and inactive = higher.

Regarding `O=[N+]([O-])c1ccc(SN=S=NSc2cccc(SN=S=NSc3ccc([N+](=O)[O-])cc3)c2)cc1`, the GI50 in the assay with K562 was 25.2 µM (inactive); in the assay on PC-3 it was 16.6 µM (inactive); in the assay with HOP-92, > 100 µM (inactive); in the assay with A498 it was 94.8 µM (inactive); in the assay on Hs-578T it was 58.3 µM (inactive); with SK-MEL-5, 28.4 µM (inactive). The GI50 with MOLT-4 was 10.2 µM (inactive); in the assay on LOX IMVI, 17.2 µM (inactive); in the assay on UACC-257, 45.3 µM (inactive); in the assay on OVCAR-8, 22.4 µM (inactive); in the assay on HCT-15, 17.7 µM; with MCF7 it was 24.6 µM (inactive). Moreover, the GI50 in the assay on CAKI-1 is 19 µM (inactive); in the assay on RPMI-8226, 27.7 µM (inactive); with COLO 205, 46.5 µM (inactive); with HL-60 it was 28.2 µM (inactive); in the assay on SK-OV-3, > 100 µM (inactive).

For `Cc1ccc(C)n2c1nc1ccc3ccccc3c12`, the GI50 is > 100 µM (inactive) in the assay with K562; 67.9 µM (inactive) in the assay on PC-3; 40.6 µM (inactive) in the assay on HOP-92; > 100 µM (inactive) in the assay on TK-10; 49.9 µM (inactive) with Hs-578T; 17.3 µM (inactive) with SNB-75. Moreover, the GI50 in the assay with SK-MEL-5 was 50.2 µM (inactive); in the assay on MOLT-4, > 100 µM (inactive); in the assay with UACC-257, > 100 µM (inactive); in the assay on OVCAR-8, > 100 µM (inactive); in the assay on HCT-15, > 100 µM; in the assay with MCF7, 26.8 µM (inactive). Moreover, the GI50 in the assay on RPMI-8226, in the assay with COLO 205, with HL-60 and in the assay with SK-OV-3 was > 100 µM (inactive) in each case.

As to `CCOC(=O)c1ccc(/N=C2/C(=S)N(c3ccc(C(=O)OCC)cc3)C(=N)N2/N=C/c2ccccc2)cc1`, the GI50 in the assay with K562 is 3.7 µM (inactive); in the assay on PC-3 it was 2.61 µM (inactive); in the assay on HOP-92, 15.9 µM (inactive); with TK-10 it was 23.2 µM (inactive); in the assay on Hs-578T, 47 µM (inactive); in the assay with MDA-MB-231, 8.05 µM (inactive). Moreover, the GI50 in the assay with SK-MEL-5 was 3.37 µM (inactive); in the assay with UACC-257 it was > 10 µM (inactive); with OVCAR-8, 28.2 µM (inactive); in the assay on HCT-15, 27.3 µM; with MCF7, 6.68 µM (inactive); in the assay with CAKI-1 it was 13.9 µM (inactive). The GI50 is 4.13 µM (inactive) with RPMI-8226, 5.06 µM (inactive) in the assay with COLO 205 and 24.1 µM (inactive) with SK-OV-3.

For `c1cn[nH]c1` [PYRAZOLE], the GI50 with K562, in the assay with PC-3, with HOP-92, in the assay with A498, in the assay on TK-10 and in the assay on Hs-578T was > 10 µM (inactive) in each case. Also, the GI50 was > 10 µM (inactive) in the assay on SNB-75; > 10 µM (inactive) in the assay with SK-MEL-5; > 10 µM (inactive) in the assay with MOLT-4; > 10 µM (inactive) in the assay on LOX IMVI; > 10 µM (inactive) in the assay with OVCAR-8; > 10 µM in the assay on HCT-15. The GI50 with MCF7, in the assay with RPMI-8226, in the assay on COLO 205, in the assay on HL-60 and with SK-OV-3 was > 10 µM (inactive) in each case.

`BrC1=C(Br)C2(SCCS2)[C@H]2C[C@@H]1c1ccccc12`: the GI50 in the assay on K562 is 9.12 µM (inactive); with PC-3, 95.5 µM (inactive); in the assay with HOP-92 it was > 59.2 µM (inactive); with A498, > 100 µM (inactive); in the assay on TK-10, > 100 µM (inactive); in the assay with SNB-75, 16.2 µM (inactive). In addition, the GI50 in the assay with MDA-MB-231 was 60.8 µM (inactive); with SK-MEL-5 it was 9.38 µM (inactive); with MOLT-4, 13.9 µM (inactive); with LOX IMVI, 43.7 µM (inactive); in the assay on UACC-257, 52.6 µM (inactive); with OVCAR-8, > 100 µM (inactive). Besides, the GI50 in the assay with HCT-15 was 17.8 µM; in the assay on MCF7, 22.3 µM (inactive); in the assay with CAKI-1, > 91.2 µM (inactive); with RPMI-8226, 13.9 µM (inactive); in the assay on COLO 205 it was 29.4 µM (inactive); in the assay with HL-60 it was 20.9 µM (inactive). The GI50 in the assay on SK-OV-3 is > 46 µM (inactive).

For the compound `O=[N+]([O-])c1ccc(CN(CCCl)OCCCl)cc1`, the GI50 with K562 is 33.8 µM (inactive); in the assay with PC-3, 26.8 µM (inactive); in the assay with TK-10, > 100 µM (inactive); in the assay on Hs-578T it was > 100 µM (inactive); in the assay on SNB-75, > 100 µM (inactive); in the assay with MDA-MB-231, > 100 µM (inactive). The GI50 is 51.3 µM (inactive) in the assay on SK-MEL-5; 20.9 µM (inactive) with MOLT-4; 55.7 µM (inactive) in the assay on LOX IMVI; 70.1 µM (inactive) in the assay on UACC-257; > 100 µM (inactive) in the assay with OVCAR-8; 91 µM with HCT-15. The GI50 is 83.4 µM (inactive) with MCF7; 64.9 µM (inactive) in the assay with CAKI-1; 98.6 µM (inactive) in the assay with RPMI-8226; > 100 µM (inactive) with COLO 205; 40 µM (inactive) in the assay with HL-60; > 100 µM (inactive) in the assay on SK-OV-3.

Regarding `N/N=C(\Nc1ccccc1)SCc1ccccc1`, the GI50 was > 100 µM (inactive) in the assay on K562; > 100 µM (inactive) in the assay with PC-3; > 100 µM (inactive) in the assay on HOP-92; > 100 µM (inactive) in the assay on A498; 41.7 µM (inactive) in the assay on SNB-75; > 100 µM (inactive) with MDA-MB-231. The GI50 was > 100 µM (inactive) in the assay with SK-MEL-5; > 100 µM (inactive) in the assay with MOLT-4; > 100 µM (inactive) in the assay on LOX IMVI; > 100 µM (inactive) with UACC-257; > 100 µM (inactive) in the assay with OVCAR-8; > 100 µM with HCT-15. For the same compound, the GI50 in the assay with MCF7, in the assay on CAKI-1, with RPMI-8226, in the assay with COLO 205, with HL-60 and with SK-OV-3 was > 100 µM (inactive) throughout.

Turning to `O=C1CN(c2ccc(Cl)cc2)C(=O)CN1CCN1CC(=O)N(c2ccc(Cl)cc2)CC1=O`, the GI50 in the assay on PC-3, with HOP-92, with A498, in the assay on TK-10, in the assay on Hs-578T and with SNB-75 was > 100 µM (inactive) in each case. Besides, the GI50 in the assay on SK-MEL-5 is > 100 µM (inactive); with MOLT-4 it was > 100 µM (inactive); in the assay on UACC-257, > 100 µM (inactive); with OVCAR-8, > 100 µM (inactive); in the assay on HCT-15, > 100 µM; with MCF7, > 100 µM (inactive). Besides, the GI50 in the assay on CAKI-1, in the assay on RPMI-8226, with COLO 205, in the assay on HL-60 and in the assay on SK-OV-3 was > 100 µM (inactive) in each case.

Consider `CCN(CC)CCn1nc(N)c2nc3ccccc3nc21`, for which the GI50 in the assay on K562, in the assay with PC-3, in the assay on HOP-92, in the assay with A498, in the assay with TK-10 and in the assay on Hs-578T was > 100 µM (inactive) each time. The GI50 was 39.9 µM (inactive) in the assay on SNB-75; 63.7 µM (inactive) in the assay on MOLT-4; > 100 µM (inactive) with LOX IMVI; > 100 µM (inactive) with UACC-257; > 100 µM (inactive) with OVCAR-8; > 100 µM in the assay on HCT-15. Besides, the GI50 in the assay with MCF7 is > 100 µM (inactive); in the assay with CAKI-1 it was 72.6 µM (inactive); with RPMI-8226, > 100 µM (inactive); in the assay with HL-60 it was > 100 µM (inactive); with SK-OV-3, > 100 µM (inactive).

For `O=[N+]([O-])c1ccc(C2c3c(O)nc(O)nc3Oc3nc(O)nc(O)c32)cc1`, the GI50 with PC-3, with A498, in the assay on TK-10, in the assay on Hs-578T, in the assay on MDA-MB-231 and with SK-MEL-5 was > 100 µM (inactive) in each case. Moreover, the GI50 with UACC-257 is > 100 µM (inactive); in the assay on OVCAR-8, > 100 µM (inactive); in the assay on HCT-15, > 100 µM; in the assay with CAKI-1, > 100 µM (inactive); in the assay on RPMI-8226, 28.8 µM (inactive); with COLO 205 it was > 100 µM (inactive). The GI50 in the assay with HL-60 was 33.7 µM (inactive); with SK-OV-3 it was > 100 µM (inactive).

On to `N#CC(C#N)=C(N)/C(C#N)=C/c1ccc2[nH]ccc2c1`, for which the GI50 with K562, with PC-3, in the assay on HOP-92, in the assay on A498, in the assay with TK-10 and with Hs-578T was > 100 µM (inactive) each time. Besides, the GI50 was 22.7 µM (inactive) in the assay on SNB-75; > 100 µM (inactive) in the assay with SK-MEL-5; > 100 µM (inactive) with MOLT-4; > 100 µM (inactive) in the assay on LOX IMVI; > 100 µM (inactive) in the assay on UACC-257; > 100 µM (inactive) in the assay on OVCAR-8. Also, the GI50 with HCT-15 was > 100 µM; in the assay on MCF7 it was > 100 µM (inactive); in the assay on CAKI-1 it was > 100 µM (inactive); in the assay on RPMI-8226 it was > 100 µM (inactive); in the assay on COLO 205 it was > 100 µM (inactive); in the assay with HL-60 it was > 100 µM (inactive). Moreover, in the assay on SK-OV-3, the GI50 was > 100 µM (inactive).

As for `COP1(=O)NCc2ncccc2O1` (stereo not drawn), the GI50 in the assay on K562, with PC-3, in the assay with HOP-92, with A498, with SNB-75 and with MDA-MB-231 was > 100 µM (inactive) each time. In addition, the GI50 in the assay with SK-MEL-5 is > 100 µM (inactive); in the assay on MOLT-4, > 100 µM (inactive); in the assay with LOX IMVI, > 100 µM (inactive); with UACC-257 it was > 100 µM (inactive); in the assay with OVCAR-8, > 100 µM (inactive); in the assay on HCT-15, > 100 µM. Besides, the GI50 with MCF7, in the assay on CAKI-1, in the assay with RPMI-8226 and in the assay on COLO 205 was > 100 µM (inactive) each time.
